The values below come from US20090100532A1, “TRANSGENIC MICE EXPRESSING HYPERSENSITIVE NICOTINIC RECEPTORS” (CALIFORNIA INSTITUTE OF TECHNOLOGY, priority 2007, published 2009).

The subject of one data set is LC neurons (α6* nAChRs). Format: cell-based, mouse.
The subject of another data set is WT and α6^L9′S mice. The following applies: mouse, in vivo.
Data set [1] relates to nAChRs. Format: biochemical, mouse. Here is the method: (§1) Neurotransmitter Release from Striatal Synaptosomes. After a mouse was sacrificed by cervical dislocation, its brain was removed and placed immediately on an ice-cold platform and brain regions were dissected. Tissues from each mouse were homogenized in 0.5 ml of ice-cold 0.32 M sucrose buffered with 5 mM HEPES, pH 7.5. A crude synaptosomal pellet was prepared by centrifugation at 12,000 g for 20 min. The pellets were resuspended in “uptake buffer”: 128 mM NaCl, 2.4 mM KCl, 3.2 mM CaCl2, 1.2 mM KH2PO4, 1.2 mM MgSO4, 25 mM HEPES, pH 7.5, 10 mM glucose. For DA uptake, buffer was supplemented with 1 mM ascorbic acid and 0.01 mM pargyline, whereas for GABA uptake, buffer was supplemented with 1 mM aminooxyacetic acid. For [^3H]GABA uptake, synaptosomes were incubated for 10 min at 37° C. […] For DA uptake, synaptosomes were incubated at 37° C. in uptake buffer for 10 min before addition of 100 nM [^3H]dopamine (1 μCi for every 0.2 ml of synaptosomes), and the suspension was incubated for an additional 5 min.
(§2) All experiments were conducted at room temperature using methods described previously (Nashmi et al., 2007; Salminen et al., 2007) with modifications for collection into 96-well plates. In brief, aliquots of synaptosomes (80 μl) were distributed onto filters and perfused with buffer (uptake buffer containing 0.1% bovine serum albumin and 1 μM atropine with 1 μM nomifensine (for DA release) or 0.1 μM NNC-711 [1-(2-(((diphenylmethylene)amino)oxy)ethyl)-1,2,5,6-tetrahydro-3-pyridinecarboxylic acid hydrochloride]) (for GABA release) at 0.7 ml/min for 10 min, or buffer for 5 min followed by buffer with 50 nM αCtxMII. […] Fractions (−0.1 ml) were collected for 4 min into 96-well plates every 10 sec starting from 1 min before stimulation, using a Gilson FC204 fraction collector with a multicolumn adapter (Gilson, Inc.; Middleton, Wis.). Radioactivity was determined by scintillation counting using a 1450 MicroBeta Trilux scintillation counter (Perkin Elmer Life Sciences-Wallac Oy; Turku, Finland) after addition of 0.15 ml Optiphase ‘SuperMix’ scintillation cocktail. Instrument efficiency was 40%.
(§3) Data were analyzed using SigmaPlot 5.0 for DOS. Perfusion data were plotted as counts per minute versus fraction number. Fractions collected before and after the peak were used to calculate baseline as a single exponential decay. The calculated baseline was subtracted from the experimental data. Fractions that exceeded baseline by 10% or more were sunmmed to give total released cpm and then normalized to baseline to give units of release [(cpm-baseline)/baseline]. Agonist dose response data were fit to the Hill equation.

The subject of data set [2] is substantia nigra DA and GABA neurons.
For data set [3] the following is noted: in vivo; cited from earlier work.
In data set [4] the target is αCtxMII-resistant receptors (Mus musculus, UniProt O70174+Q9ERK7).
αCtxMII-resistant receptors, sequence (O70174 31-629, stated change not applied): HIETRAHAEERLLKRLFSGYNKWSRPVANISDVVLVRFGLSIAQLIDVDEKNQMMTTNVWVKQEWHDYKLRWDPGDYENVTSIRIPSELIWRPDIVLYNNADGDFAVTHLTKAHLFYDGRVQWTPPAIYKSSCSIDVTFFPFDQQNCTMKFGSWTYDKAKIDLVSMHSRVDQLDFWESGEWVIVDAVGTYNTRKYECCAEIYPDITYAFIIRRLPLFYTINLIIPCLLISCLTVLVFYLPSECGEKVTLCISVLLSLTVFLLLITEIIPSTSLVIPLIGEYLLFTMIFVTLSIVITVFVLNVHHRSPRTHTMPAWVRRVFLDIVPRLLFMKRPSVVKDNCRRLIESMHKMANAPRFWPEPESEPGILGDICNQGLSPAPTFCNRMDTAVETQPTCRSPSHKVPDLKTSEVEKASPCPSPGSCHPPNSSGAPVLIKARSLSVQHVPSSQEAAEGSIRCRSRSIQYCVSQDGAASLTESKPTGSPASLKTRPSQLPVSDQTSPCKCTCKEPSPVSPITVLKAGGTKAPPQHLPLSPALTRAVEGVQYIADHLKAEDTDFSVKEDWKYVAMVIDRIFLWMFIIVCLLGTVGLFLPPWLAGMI
αCtxMII-resistant receptors, sequence (Q9ERK7 26-501, stated change not applied): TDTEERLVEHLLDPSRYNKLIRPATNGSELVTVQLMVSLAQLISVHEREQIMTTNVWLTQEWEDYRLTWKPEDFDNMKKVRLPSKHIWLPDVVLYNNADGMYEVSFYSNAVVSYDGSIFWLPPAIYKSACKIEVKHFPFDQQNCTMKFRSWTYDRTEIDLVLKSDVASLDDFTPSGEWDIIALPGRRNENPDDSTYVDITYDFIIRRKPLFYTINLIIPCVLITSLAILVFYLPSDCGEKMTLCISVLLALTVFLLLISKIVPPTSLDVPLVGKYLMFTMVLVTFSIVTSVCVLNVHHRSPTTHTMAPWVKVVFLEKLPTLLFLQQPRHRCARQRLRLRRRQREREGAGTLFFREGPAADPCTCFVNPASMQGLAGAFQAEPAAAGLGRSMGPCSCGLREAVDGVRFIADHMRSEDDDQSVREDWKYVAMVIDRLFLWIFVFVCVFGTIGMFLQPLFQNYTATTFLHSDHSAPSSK
Data set [5] concerns the target T1, α6* nAChRs (Mus musculus, UniProt Q9ERK7+Q9R0W9, L280S).
T1 construct: from tissue
Kind of data set: biochemical. Format: biochemical. Here is the method:
as §1, §2, §3

The target in a further data set is T2, α4β2* (non-α6) nAChRs (Mus musculus, UniProt O70174+Q9ERK7).
T2 construct: from tissue; host or cells: striatal / olfactory tubercle synaptosomes of WT and α6L9′S mice
T2 sequence (Q9ERK7 26-501): as the sequence (Q9ERK7 26-501, stated change not applied) above
T2 sequence (O70174 31-629): as the sequence (O70174 31-629, stated change not applied) above
As to the kind of experiment: biochemical. Format: biochemical. Here is the method: as §1, §2, §3

Data set [6] has as its target T3, α6* nAChRs (Mus musculus, UniProt Q9ERK7+Q9R0W9).
T3 construct: from tissue
As to the kind of experiment: biochemical. Format: biochemical. Here is the method: as §1, §2, §3

In data set [7] the test system is αCtxMII-sensitive receptors (α6*).
For data set [8] the following is noted: in vivo; cited from earlier work. The source holds these as a separate data set.
Data set [9] concerns α6* nAChRs. Here is the method: as §1, §2, §3
Data set [10] concerns the target nAChRs (Mus musculus, UniProt O70174+Q9ERK7). As to the method: as §1, §2, §3
The target of the next data set is α4β2* nAChRs (Mus musculus, UniProt O70174+Q9ERK7). As to the method: as §1, §2, §3
α4β2* nAChRs, sequence (Q9ERK7 26-501): as the sequence (Q9ERK7 26-501, stated change not applied) above
α4β2* nAChRs, sequence (O70174 31-629): as the sequence (O70174 31-629, stated change not applied) above
Another data set relates to α6^L9′S mice. The following applies: mouse, in vivo. As to the method: Locomotor Activity. Mice used to study locomotion were eight to sixteen weeks old by the beginning of an experiment, and were back-crossed to C57BL/6 at least three times. […] Mouse horizontal locomotor activity was measured with an infrared photobeam activity cage system (San Diego Instruments; San Diego, Calif.). Ambulation events were recorded when two contiguous photobeams were broken in succession. Acute locomotor activity in response to nicotinic ligands or other agents was studied by recording ambulation events during four 15 sec intervals per minute for a designated number of minutes. For most experiments, groups of eight mice were placed in the activity cages (18×28 cm) and their baseline level of activity was recorded for eight minutes. Mice were removed from their cage, injected (100 μl per 25 g body mass), and returned to the cage within 15 sec. […] For generation of locomotor activity concentration-response relationship profiles, a group of mice was administered saline and, after five to eight days off, each successive dose of drug. […] For 48 h home cage monitoring, mice were isolated in their own cage and habituated to the test room and cage for 24 h. Following this, locomotor activity was recorded in 15 min intervals for 48 h.

The target in data set [11] is hypersensitive nicotinic receptors in α6L9′S VTA DA neurons (Mus musculus, UniProt Q9ERK7+Q9R0W9, L280S). Format: cell-based.
hypersensitive nicotinic receptors in α6L9′S VTA DA neurons, sequence (Q9ERK7 whole entry, looked up, stated change not applied): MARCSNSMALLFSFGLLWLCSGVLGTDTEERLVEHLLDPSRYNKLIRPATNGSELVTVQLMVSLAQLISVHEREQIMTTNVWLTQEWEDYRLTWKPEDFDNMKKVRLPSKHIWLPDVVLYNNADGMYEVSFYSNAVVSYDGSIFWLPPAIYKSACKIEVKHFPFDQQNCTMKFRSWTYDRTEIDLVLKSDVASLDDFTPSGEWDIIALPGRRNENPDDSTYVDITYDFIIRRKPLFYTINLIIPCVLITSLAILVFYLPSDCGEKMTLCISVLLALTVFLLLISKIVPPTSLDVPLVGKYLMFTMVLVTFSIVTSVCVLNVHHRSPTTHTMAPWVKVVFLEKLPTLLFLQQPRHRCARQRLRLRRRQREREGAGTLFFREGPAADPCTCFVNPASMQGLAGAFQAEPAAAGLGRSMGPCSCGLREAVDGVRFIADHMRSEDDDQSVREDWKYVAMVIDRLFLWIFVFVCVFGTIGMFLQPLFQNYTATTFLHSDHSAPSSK
hypersensitive nicotinic receptors in α6L9′S VTA DA neurons, sequence (Q9R0W9 whole entry, looked up, stated change not applied): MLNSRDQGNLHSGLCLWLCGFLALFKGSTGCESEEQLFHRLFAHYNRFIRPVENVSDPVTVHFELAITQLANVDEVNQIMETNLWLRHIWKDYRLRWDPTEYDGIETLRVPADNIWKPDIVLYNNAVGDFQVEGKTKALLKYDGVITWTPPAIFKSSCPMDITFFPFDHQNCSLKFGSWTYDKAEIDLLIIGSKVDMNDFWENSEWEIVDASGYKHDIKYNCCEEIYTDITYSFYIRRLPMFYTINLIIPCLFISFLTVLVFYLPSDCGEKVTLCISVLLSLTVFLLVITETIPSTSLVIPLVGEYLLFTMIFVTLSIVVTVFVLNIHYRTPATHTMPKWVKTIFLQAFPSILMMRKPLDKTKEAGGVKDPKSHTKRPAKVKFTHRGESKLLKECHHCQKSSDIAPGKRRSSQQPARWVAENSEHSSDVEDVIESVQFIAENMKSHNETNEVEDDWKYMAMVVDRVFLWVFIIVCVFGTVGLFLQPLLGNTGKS
A further data set has as its target T4, α3β4 receptors (UniProt P12392+P32297).
T4 construct: expressed in transfected cells; host or cells: Xenopus laevis oocytes injected with cRNA
Kind of data set: Two-electrode voltage clamp, X. laevis oocytes, α3β4. Format: cell-based. Here is the method: (§4) Two-Electrode Voltage-Clamp Electrophysiology. Stage V to VI X. laevis oocytes were isolated as described previously (Quick and Lester, Ion Channels of Excitable Cells, Narahashi T ed., pp 261-279, 1994). Stock RNAs were diluted into diethyl pyrocarbonatetreated water and injected 1 day after isolation. RNA was injected in a final volume of 50 nl per oocyte using a digital microdispenser (Drummond Scientific, Broomall, Pa.). After injection, oocytes were incubated in ND-96 solution (96 mM NaCl, 2 mM KCl, 1 mM CaCl2, 1 mM MgCl2, and 5 mM HEPES/NaOH, pH 7.6) supplemented with 50 μg/ml gentamicin and 2.5 mM sodium pyruvate. After 1 to 4 days for nAChR expression, oocytes were used for recording or confocal microscopy.
(§5) Agonist-activated nicotinic receptor responses were measured by two-electrode voltage-clamp recording using a GeneClamp 500 (Molecular Devices, Sunnyvale, Calif.) voltage clamp. Electrodes were constructed from Kwik-Fil borosilicate glass capillary tubes (1B150F-4; WPI, Sarasota, Fla.) using a programmable microelectrode puller (P-87; Sutter Instrument Company, Novato, Calif.). The electrodes had tip resistances of 0.8 to 2.0 MΩ after filling with 3 M KCl. […]
A general note: Two-electrode voltage clamp holds a large cell at a set potential and records current.

The test system of a further data set is α4Yβ2 receptors. Format: cell-based, mouse.
Another data set has as its target T5, α3β4β3 receptors (UniProt P12392+P32297).
T5 construct: expressed in transfected cells; host or cells: Xenopus laevis oocytes injected with cRNA
Kind of data set: Two-electrode voltage clamp, X. laevis oocytes, α3β4β3. Format: cell-based. Here is the method: as §4, §5

Data set [12] concerns striatal (ST and OT combined) synaptosomes. As to the method: as §1, §2, §3

Where “and” joins values, the source holds several entries; their conditions need not be identical. Identical values can stand only once. Where only a bound is given, the exact number is not on record here.

nAChRs (Mus musculus, UniProt O70174+Q9ERK7), sequence (Q9ERK7 26-501): as the sequence (Q9ERK7 26-501, stated change not applied) above
nAChRs (Mus musculus, UniProt O70174+Q9ERK7), sequence (O70174 31-629): as the sequence (O70174 31-629, stated change not applied) above
T1 sequence (Q9ERK7 26-501, stated change not applied): as the sequence (Q9ERK7 26-501, stated change not applied) above
T1 sequence (Q8BMN3 31-464, further chain): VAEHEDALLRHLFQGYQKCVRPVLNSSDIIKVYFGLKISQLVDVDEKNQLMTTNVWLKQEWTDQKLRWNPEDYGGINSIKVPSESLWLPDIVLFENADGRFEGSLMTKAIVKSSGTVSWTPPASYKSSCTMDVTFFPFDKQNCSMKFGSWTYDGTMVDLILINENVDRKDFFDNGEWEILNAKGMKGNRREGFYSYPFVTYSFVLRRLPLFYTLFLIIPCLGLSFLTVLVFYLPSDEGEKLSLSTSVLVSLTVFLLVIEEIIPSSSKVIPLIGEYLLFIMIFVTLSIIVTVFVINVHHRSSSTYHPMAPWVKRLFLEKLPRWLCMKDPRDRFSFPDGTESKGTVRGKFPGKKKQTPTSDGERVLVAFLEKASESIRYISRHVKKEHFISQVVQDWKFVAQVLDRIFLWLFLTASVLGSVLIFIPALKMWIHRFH
T1 sequence (Q9R0W9 31-494 L280S): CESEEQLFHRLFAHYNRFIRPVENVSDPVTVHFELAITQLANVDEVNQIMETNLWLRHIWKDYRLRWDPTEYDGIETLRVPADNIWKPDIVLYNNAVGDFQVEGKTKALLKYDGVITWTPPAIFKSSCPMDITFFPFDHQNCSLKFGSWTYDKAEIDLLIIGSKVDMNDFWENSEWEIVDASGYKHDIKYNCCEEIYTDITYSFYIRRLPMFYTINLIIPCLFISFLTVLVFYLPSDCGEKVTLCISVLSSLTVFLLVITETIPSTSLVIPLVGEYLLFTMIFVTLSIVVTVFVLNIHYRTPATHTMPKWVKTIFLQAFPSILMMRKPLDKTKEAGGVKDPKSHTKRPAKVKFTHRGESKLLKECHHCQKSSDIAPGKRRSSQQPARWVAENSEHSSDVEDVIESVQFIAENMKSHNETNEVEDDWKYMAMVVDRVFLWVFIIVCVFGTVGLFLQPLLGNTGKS
T3 sequence (Q9R0W9 31-494): as the sequence (Q9R0W9 31-494 L280S) above, with S250L counted along it
T3 sequence (Q8BMN3 31-464, further chain): as the sequence (Q8BMN3 31-464, further chain) above
T3 sequence (Q9ERK7 26-501): as the sequence (Q9ERK7 26-501, stated change not applied) above
T5 sequence (P32297 32-505): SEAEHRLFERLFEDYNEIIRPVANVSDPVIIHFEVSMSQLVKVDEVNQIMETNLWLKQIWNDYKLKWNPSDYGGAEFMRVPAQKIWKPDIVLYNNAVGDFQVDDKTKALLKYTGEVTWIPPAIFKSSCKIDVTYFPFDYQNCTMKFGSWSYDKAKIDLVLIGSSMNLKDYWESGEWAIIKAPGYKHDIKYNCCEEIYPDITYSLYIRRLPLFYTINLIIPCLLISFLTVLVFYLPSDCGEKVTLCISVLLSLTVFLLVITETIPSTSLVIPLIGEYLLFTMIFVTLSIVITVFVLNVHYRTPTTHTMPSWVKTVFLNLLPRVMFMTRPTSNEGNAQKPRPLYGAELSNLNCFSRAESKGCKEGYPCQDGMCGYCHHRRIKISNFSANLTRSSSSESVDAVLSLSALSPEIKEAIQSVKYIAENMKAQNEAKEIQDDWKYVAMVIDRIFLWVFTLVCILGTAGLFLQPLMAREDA
T5 sequence (P12392 21-495): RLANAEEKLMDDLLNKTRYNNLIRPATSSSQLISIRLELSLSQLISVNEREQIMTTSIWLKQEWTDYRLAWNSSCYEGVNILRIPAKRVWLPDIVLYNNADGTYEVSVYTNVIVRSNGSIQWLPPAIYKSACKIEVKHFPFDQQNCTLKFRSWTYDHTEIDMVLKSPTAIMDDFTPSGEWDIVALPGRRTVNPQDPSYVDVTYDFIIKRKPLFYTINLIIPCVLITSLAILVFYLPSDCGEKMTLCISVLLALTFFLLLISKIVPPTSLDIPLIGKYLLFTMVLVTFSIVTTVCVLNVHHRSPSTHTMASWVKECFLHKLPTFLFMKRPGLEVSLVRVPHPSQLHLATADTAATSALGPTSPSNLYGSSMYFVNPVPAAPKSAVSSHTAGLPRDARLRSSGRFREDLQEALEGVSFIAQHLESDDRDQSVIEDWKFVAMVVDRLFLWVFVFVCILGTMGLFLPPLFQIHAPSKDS
T5 sequence (Q8BMN3 31-464 partner): as the sequence (Q8BMN3 31-464, further chain) above
T4 sequence (P32297 32-505): as the sequence (P32297 32-505) above
T4 sequence (P12392 21-495): as the sequence (P12392 21-495) above

As for `CN1CCCC1c1cccnc1` (single isomer, unassigned) [nicotine], the “responses to locally applied nicotine in LC neurons” value in the data set with LC neurons (α6* nAChRs) is recorded as “larger responses”. The “hypothermia response, WT versus α6^L9′S mice” value with WT and α6^L9′S mice is recorded as “No difference was found”. In addition, in the data set with nAChRs [1], the “Rmax (±SEM), Total DA release” value is 33.1 ± 2.1 and 36.0 ± 1.3 and 34.3 ± 1.7 and 20.9 ± 1.0 and 21.4 ± 0.9 and 20.8 ± 1.2; the “Total DA release by 10 μM nic (positive control)” value was 16.69 and 19.68 and 20.65 and 17.70 and 17.30 and 16.70. Further, the “firing rate in response to local application” value in the data set with VTA DA neurons is “significant increase in the firing rate”. Besides, in data set [2], the “average responses (peak current) in GABA neurons” value is reported as less than 10 pA; the “responses in WT DA and GABA neurons” value is given as “undetectable”. Besides, the “concentration in the cerebrospinal fluid of smokers” value in data set [3] was no more than 500 nM. For the same molecule, the “αCtxMII-resistant 86Rb+ efflux” value in [4] is on record as “unchanged”. Moreover, the “MII-sensitive DA release by 10 μM nic (positive control)” value on α6* nAChRs [5] was 8.53 and 5.97 and 10.77 and 10.39. For the same molecule, the “MII-resistant DA release by 10 μM nic (positive control)” value at α4β2* (non-α6) nAChRs was 14.55 and 8.75 and 10.78 and 15.07 and 8.91 and 10.26. In addition, on α6* nAChRs [6], the “MII-sensitive DA release by 10 μM nic (positive control)” value is 3.19 and 1.63; the “Rmax (±SEM), MII-sensitive DA release” value was 5.41 ± 0.54 and 7.03 ± 0.86. In [7], the “αCtxMII-sensitive 86Rb+ efflux” value is listed as “hypersensitive to nicotine relative to WT”. Also, in [8], the elimination half life is reported as roughly 7 min. Also, in the data set on α6* nAChRs [9], the “EC50 (±SEM), MII-sensitive GABA release” value is on record as “no activity” and the “Rmax (±SEM), MII-sensitive GABA release” value is “no activity”. Besides, the “Rmax (±SEM), Total GABA release” value at nAChRs [10] is 1.64 ± 0.32 and 1.25 ± 0.06 and 1.22 ± 0.11. The “Rmax (±SEM), MII-resistant GABA release” value on α4β2* nAChRs was 1.40 ± 0.08 and 1.26 ± 0.08 and 1.30 ± 0.10. Further, the “tolerance or sensitization: change in locomotor behavior after repeated injections” value in the data set with α6^L9′S mice is on record as “did not produce any change in locomotor behavior”. Further, the “inward currents elicited by puffs of 1 μM” value in [11] is on record as “larger than those seen in WT neurons at any concentration”.

The EC50 is the concentration giving half of the maximal effect. A high value points to lower potency in that assay. Regarding `CC(=O)OCC[N+](C)(C)C` [ACh, acetylcholine], the EC50 on α3β4 receptors turned out to be 165 ± 9 µM; on α3β4β3 receptors, 230 ± 22 µM. For the same molecule, the voltage-clamped responses in the data set on α4Yβ2 receptors was 200-400 pA.

`[K+]` [K^+]: in data set [12], the “GABA release stimulated by 20 mM K^+” value is 8.31 ± 0.34 and 8.24 ± 0.45 and 8.43 ± 0.50.
